Source: patent US20070081967A1, “Revitalizing hair follicles with total parenteral nutrition or hyperalimentation for maximum hair growth” (priority 2005, published 2007)
“Also recorded” adds a separate entry of the source.

How the values were obtained:
[1] = Solubility of ingredients in solvents during preparation; conditions: qualitative
Description: 3 grams of azelaic acid was ground up into a powder from “hairs” of this dicarboxylic acid. […] Next, 50 mg of vinpocetine is added to the mortar and also ground to a powder. The use of 10 mg tablets of vinpocetine can be used if the raw material in not available. […] At this point 26 cc (or ml) of isopropyl alcohol is added to the mortar and mixed to form the first suspension. […] These two powders are soluble in water which 5 ml of sterile water is added and stirred. At the point the two products can be combines with the final addition of 12 ml of propylene glycol. […] The final volume of 60 ml can be achieved by the “qs” or “adding up to” the 60 ml mark with sterile water.

alopecia = conditions: cited from earlier work

| solubility in isopropyl alcohol [1] | Compound | solubility in organic solvents ([1]; solvents named in value) | time to loss of new hair after treatment is stopped (alopecia; after finasteride treatment is stopped) [year] | time to occurrence of hair growth (alopecia; balding men, after start of use) | success rate for treating alopecia (alopecia; reported success rate) [%] |
| --- | --- | --- | --- | --- | --- |
| slightly soluable | CCOC(=O)C1=C[C@]2(CC)CCCN3CCc4c(n1c1ccccc41)[C@@H]32 [Vinpocetine, 14-ethoxycarbonyl-3 alpha, 16 alpha-ethyl-14, 15-ebumamine] | only soluable in DMSO, 100% ethanol or acetone; also recorded: only soluble in DMSO, 100% ethanol or acetone |  |  |  |
|  | CC(C)(C)NC(=O)[C@H]1CC[C@H]2[C@@H]3CC[C@H]4NC(=O)C=C[C@]4(C)[C@H]3CC[C@]12C [Finasteride] |  | ≤ 1 | about 3 months | 40 |
